Patent publication US20260234150A1, “COMPOUND FOR INHIBITING NLRP3, PREPARATION METHOD, AND USE” (DOVETREE MEDICINES UNUS, INC., priority 2023, published 2026)

Molecular target: T1, CYP1A2 (Homo sapiens, UniProt P05177)
T1 construct: 0.05 mg/mL liver microsome (BioIVT, IHG) phosphate buffer solution; tissue BioIVT IHG; host or cells: human liver microsomes
T1 sequence (P05177 1-516): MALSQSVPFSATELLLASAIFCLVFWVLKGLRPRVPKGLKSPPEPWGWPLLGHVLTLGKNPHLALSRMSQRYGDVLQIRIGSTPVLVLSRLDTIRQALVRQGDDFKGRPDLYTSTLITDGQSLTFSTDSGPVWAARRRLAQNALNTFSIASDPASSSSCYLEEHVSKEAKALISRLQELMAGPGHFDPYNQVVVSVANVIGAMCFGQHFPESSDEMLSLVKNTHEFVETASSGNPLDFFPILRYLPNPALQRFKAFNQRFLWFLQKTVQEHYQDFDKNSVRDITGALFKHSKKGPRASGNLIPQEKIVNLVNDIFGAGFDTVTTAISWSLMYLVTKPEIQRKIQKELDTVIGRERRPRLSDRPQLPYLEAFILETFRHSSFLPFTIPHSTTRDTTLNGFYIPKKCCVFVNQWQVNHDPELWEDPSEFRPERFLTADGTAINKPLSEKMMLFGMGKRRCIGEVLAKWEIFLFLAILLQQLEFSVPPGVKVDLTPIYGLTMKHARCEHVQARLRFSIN
Test: CYP450 enzyme inhibition in human liver microsomes, CYP1A2
Format: in vitro ADME
Conditions: substrate Phenacetin, read-out: Inhibitory activity IC50 (μM) CYP1A2
Description: This experiment incubates the compound, liver microsomes and different CYP subtype enzyme substrates in a 37° C. water bath to measure the amount of substrate metabolites produced and evaluate the inhibitory effect of the compound of the present disclosure on CYP enzymes based on the IC50 value.
i. The compound was diluted to 0, 0.02 mM, 0.06 mM, 0.2 mM, 0.6 mM, 2 mM and 6 mM concentrations with DMSO (Aladdin, catalog number: D103273-500 ml).
ii. The enzyme substrate solutions of each CYP subtype were prepared by phosphate buffer (sigma: V900050-500G).
iii. Sample incubation. […] After centrifugation at 4000 rpm and 4° C. for 40 min, the supernatant was diluted with pure water according to the response of the substrate metabolites and then detected by UPLC-MS/MS (Sciex, Q-Trap 4500). […]
The inhibitory effect of the compound on each P450 enzyme in human liver microsomes was calculated as the percentage of reduced metabolite formation compared with the non-inhibitory control (i.e., blank DMSO). The IC50 value for each P450 enzyme in human liver microsomes was calculated using the logarithm of the remaining activity and the inhibitor concentration using Graphpad Prism software. […]

In the case of `CC(=O)N1CCOC[C@H]1CNc1nc2nc(-c3c(C)cc(C(F)(F)F)cc3O)ccc2o1` [Compound 111], the IC50 is reported as > 30 µM.
